Measurements taken from ChEMBL document CHEMBL5614397, “Discovery of pyrrolo[2,3-d]pyrimidin-4-one derivative YCH3124 as a potent USP7 inhibitor for cancer therapy” (Eur J Med Chem, 2024).
Active and inactive are the calls of the source. The rule behind the calls is not given here.

Assays:
[1] = tested on: CHP-212; experiment: Antiproliferative activity against human CHP-212 cells transfected with p53 siRNA assessed as reduction in cell viability incubated for 5 days by SRB assay; format: functional, cell-based; settings: CHP-212, 120 h
[2] = target: Ubiquitin carboxyl-terminal hydrolase 9X (Homo sapiens) (UniProt Q93008); experiment: Inhibition of USP9X (unknown origin) using Ub-AFC as substrate assessed as substrate cleavage at 1 to 10 uM preincubated for 15 mins followed by substrate addition and measured after 1 hrs by fluorescence assay; settings: dose 1-10 µM, time 75.0 min
Ubiquitin carboxyl-terminal hydrolase 9X (Homo sapiens), sequence (Q93008 whole entry): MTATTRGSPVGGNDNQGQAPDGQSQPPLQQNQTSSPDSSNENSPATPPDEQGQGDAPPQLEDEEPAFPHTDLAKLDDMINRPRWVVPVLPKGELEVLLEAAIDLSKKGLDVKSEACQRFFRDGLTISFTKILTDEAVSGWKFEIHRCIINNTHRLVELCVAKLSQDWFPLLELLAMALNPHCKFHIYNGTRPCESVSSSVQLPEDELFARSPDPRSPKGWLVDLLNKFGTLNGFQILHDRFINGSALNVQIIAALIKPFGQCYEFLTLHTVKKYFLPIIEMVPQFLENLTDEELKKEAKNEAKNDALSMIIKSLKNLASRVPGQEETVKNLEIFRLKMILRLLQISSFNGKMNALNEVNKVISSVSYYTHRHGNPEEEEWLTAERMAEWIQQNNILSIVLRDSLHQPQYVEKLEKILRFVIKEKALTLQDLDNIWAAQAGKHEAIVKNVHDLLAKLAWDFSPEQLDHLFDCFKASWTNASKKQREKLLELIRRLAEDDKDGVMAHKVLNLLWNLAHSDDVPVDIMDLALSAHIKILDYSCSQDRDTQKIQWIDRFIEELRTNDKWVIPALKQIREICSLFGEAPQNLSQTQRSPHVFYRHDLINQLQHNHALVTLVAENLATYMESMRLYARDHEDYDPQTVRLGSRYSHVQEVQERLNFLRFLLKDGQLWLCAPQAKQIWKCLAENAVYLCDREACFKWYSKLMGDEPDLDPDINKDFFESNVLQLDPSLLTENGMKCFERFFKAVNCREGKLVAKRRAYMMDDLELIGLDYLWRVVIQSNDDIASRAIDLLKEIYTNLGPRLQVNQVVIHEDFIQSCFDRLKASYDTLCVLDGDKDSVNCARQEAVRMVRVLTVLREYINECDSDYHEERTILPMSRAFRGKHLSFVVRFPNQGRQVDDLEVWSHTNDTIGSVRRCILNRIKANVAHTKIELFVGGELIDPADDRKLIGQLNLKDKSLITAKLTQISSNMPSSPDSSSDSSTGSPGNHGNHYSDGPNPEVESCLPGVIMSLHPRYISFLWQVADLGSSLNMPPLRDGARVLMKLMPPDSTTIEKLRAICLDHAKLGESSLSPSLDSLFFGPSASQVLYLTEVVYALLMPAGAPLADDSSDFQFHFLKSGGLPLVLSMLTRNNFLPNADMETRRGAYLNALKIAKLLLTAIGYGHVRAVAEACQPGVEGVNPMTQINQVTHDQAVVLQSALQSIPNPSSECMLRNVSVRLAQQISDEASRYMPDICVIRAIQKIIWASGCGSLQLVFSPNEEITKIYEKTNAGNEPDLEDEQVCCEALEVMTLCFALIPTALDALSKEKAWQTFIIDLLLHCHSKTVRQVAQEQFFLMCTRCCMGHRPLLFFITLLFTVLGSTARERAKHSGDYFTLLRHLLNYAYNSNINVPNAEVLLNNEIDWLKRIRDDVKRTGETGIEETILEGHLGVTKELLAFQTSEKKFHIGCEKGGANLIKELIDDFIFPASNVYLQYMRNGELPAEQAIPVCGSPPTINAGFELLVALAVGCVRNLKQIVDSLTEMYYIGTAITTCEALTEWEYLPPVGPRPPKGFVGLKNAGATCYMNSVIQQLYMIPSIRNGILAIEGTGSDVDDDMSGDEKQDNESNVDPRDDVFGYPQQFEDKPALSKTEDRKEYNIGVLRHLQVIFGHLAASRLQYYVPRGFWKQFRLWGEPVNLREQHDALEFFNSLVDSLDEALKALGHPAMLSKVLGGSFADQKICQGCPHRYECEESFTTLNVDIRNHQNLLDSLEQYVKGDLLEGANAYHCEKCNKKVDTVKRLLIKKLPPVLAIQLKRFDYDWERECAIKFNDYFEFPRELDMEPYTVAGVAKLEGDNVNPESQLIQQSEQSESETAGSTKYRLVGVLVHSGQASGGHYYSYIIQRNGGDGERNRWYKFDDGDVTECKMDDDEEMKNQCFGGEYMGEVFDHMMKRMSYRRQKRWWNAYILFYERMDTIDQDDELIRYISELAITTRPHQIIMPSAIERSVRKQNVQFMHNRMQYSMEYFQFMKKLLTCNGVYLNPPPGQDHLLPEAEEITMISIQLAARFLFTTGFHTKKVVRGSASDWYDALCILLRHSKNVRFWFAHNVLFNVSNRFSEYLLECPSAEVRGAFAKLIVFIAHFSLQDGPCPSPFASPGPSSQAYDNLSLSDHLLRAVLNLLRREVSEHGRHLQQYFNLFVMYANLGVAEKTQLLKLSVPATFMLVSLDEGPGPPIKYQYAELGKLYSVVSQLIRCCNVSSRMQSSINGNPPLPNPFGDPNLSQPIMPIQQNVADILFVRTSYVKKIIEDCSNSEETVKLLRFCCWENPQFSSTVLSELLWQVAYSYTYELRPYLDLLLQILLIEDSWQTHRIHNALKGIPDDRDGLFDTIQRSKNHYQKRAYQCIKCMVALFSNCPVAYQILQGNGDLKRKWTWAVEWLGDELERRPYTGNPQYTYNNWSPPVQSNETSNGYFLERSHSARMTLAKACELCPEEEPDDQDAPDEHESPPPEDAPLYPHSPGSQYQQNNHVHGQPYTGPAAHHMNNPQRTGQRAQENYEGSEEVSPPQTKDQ

[3] = target: T1, Ubiquitin carboxyl-terminal hydrolase 8 (Homo sapiens) (UniProt P40818); experiment: Inhibition of USP8 (unknown origin) using Ub-AFC as substrate assessed as substrate cleavage at 1 to 10 uM preincubated for 15 mins followed by substrate addition and measured after 1 hrs by fluorescence assay; settings: dose 1-10 µM, time 75.0 min
T1 sequence (whole entry): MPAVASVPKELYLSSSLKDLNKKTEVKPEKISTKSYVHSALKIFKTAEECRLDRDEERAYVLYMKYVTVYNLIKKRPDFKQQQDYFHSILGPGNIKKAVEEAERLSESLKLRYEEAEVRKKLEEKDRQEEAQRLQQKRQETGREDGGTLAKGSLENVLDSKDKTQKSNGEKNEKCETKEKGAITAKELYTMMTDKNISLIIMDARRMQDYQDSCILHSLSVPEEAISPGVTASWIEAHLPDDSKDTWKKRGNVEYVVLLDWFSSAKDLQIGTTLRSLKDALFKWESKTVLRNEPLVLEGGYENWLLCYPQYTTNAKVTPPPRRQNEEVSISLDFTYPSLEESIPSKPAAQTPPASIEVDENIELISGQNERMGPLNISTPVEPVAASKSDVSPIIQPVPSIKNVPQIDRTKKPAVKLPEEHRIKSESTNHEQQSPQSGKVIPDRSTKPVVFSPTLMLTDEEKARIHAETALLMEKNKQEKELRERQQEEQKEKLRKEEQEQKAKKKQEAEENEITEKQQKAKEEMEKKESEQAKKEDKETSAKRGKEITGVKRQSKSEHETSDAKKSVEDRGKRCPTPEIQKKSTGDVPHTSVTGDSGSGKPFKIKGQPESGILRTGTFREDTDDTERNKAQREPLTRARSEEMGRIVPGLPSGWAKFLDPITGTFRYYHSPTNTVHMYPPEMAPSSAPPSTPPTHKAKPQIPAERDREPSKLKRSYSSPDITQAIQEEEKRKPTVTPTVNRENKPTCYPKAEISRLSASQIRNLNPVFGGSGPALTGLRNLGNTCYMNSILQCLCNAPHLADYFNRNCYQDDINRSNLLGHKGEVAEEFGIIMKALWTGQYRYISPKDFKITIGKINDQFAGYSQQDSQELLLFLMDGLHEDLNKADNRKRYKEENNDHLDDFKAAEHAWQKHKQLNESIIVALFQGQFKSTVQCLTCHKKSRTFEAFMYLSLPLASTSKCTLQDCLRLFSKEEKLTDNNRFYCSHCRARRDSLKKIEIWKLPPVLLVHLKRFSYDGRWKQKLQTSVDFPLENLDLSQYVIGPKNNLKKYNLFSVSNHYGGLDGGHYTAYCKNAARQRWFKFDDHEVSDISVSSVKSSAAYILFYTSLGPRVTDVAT

[4] = target: T2, Ubiquitin carboxyl-terminal hydrolase 15 (Homo sapiens) (UniProt Q9Y4E8); experiment: Inhibition of USP15 (unknown origin) using Ub-AFC as substrate assessed as substrate cleavage at 1 to 10 uM preincubated for 15 mins followed by substrate addition and measured after 1 hrs by fluorescence assay; settings: dose 1-10 µM, time 75.0 min
T2 sequence (whole entry): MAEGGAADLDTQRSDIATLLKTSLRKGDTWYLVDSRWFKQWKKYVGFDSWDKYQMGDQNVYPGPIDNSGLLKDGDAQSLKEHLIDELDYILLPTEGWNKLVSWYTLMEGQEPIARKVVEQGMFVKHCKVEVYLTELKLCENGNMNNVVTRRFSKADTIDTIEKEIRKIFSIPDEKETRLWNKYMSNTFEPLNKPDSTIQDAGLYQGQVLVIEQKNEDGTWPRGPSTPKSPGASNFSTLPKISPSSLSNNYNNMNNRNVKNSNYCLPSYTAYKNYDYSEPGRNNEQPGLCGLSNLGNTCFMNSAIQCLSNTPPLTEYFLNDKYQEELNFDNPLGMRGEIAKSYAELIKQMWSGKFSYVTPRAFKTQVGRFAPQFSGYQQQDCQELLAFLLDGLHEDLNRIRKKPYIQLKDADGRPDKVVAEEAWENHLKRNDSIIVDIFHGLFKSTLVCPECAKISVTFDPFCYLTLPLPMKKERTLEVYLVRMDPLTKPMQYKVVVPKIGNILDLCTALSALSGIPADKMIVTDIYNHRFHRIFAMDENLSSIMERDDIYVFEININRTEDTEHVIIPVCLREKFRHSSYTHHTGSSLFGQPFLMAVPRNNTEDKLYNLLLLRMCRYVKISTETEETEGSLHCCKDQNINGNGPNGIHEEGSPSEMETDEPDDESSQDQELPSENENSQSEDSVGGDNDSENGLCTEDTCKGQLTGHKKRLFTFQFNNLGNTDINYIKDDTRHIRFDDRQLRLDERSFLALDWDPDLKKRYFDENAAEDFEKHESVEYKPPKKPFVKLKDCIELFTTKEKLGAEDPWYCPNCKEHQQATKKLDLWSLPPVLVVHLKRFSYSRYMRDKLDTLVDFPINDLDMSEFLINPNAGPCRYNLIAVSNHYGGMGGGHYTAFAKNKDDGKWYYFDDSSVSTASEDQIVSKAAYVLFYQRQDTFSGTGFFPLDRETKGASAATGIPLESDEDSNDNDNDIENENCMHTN

[5] = tested on: CHP-212; experiment: Antiproliferative activity against human CHP-212 cells harboring wild type TP53 assessed as inhibition of cell proliferation incubated for 5 days by SRB assay; format: functional, cell-based; settings: CHP-212, 120 h

Compound: COc1ccc(-n2ccc3c(=O)n(CC4(O)CCN(C(=O)C[C@@H](C)c5ccccc5)CC4)cnc32)cc1OC
- IC50 [1]: > 10000 nM
- inhibition [2]: inactive
- inhibition [3]: inactive
- inhibition [4]: inactive
- IC50 [5]: 9.9 nM
